Values of other authors, collected in PMC9851200, “Multiparameter phenotypic screening for endogenous TFEB and TFE3 translocation identifies novel chemical series modulating lysosome function” (Autophagy, 2022).

How the values were obtained:
Parameters in all cases: method as in original PKIS2 published data
[1] = target: kinases (KINOMEscan panel) (Homo sapiens, UniProt O60331); conditions: PIP5K1C; Published KINOMEscan; ref original PKIS2 published data; cited from earlier work
[2] = target: T1, kinases (KINOMEscan panel) (Homo sapiens, UniProt O95835); conditions: LATS1; Published KINOMEscan; ref original PKIS2 published data; cited from earlier work
T1 sequence (O95835 1-1130): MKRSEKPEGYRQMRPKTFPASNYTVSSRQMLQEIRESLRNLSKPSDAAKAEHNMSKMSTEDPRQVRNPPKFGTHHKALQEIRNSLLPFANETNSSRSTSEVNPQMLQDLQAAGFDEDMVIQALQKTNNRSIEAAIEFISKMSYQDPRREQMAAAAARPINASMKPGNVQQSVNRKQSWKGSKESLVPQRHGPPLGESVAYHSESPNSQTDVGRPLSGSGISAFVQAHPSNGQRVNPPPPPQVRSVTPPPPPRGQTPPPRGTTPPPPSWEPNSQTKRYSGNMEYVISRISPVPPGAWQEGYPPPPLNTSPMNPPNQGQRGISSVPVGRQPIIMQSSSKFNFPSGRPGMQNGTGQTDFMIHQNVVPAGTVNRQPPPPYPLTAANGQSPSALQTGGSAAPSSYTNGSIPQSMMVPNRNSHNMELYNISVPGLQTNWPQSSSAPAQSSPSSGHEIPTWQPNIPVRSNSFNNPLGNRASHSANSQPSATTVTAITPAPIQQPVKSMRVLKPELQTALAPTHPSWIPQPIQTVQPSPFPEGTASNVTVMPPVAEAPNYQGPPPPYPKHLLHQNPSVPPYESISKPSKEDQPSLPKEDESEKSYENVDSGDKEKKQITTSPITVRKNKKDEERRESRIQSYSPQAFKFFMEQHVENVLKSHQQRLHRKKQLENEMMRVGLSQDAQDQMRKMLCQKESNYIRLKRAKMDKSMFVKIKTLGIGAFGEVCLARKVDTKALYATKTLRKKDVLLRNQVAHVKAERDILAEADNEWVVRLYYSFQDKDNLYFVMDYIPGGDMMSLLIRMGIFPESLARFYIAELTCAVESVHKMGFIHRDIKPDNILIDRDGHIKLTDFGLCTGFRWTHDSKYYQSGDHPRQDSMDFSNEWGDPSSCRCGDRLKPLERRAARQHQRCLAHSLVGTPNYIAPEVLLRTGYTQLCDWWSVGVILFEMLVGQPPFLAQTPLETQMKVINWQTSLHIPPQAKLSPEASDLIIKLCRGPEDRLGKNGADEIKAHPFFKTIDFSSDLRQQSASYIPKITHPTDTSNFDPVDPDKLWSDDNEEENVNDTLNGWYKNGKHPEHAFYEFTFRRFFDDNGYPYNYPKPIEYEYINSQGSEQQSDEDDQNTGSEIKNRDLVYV

[3] = target: kinases (KINOMEscan panel) (Homo sapiens, UniProt P48736); conditions: kinase PIK3CG; Published KINOMEscan; ref original PKIS2 published data; cited from earlier work
Chain of kinases (KINOMEscan panel) (Homo sapiens, UniProt P48736) (P48736 whole entry): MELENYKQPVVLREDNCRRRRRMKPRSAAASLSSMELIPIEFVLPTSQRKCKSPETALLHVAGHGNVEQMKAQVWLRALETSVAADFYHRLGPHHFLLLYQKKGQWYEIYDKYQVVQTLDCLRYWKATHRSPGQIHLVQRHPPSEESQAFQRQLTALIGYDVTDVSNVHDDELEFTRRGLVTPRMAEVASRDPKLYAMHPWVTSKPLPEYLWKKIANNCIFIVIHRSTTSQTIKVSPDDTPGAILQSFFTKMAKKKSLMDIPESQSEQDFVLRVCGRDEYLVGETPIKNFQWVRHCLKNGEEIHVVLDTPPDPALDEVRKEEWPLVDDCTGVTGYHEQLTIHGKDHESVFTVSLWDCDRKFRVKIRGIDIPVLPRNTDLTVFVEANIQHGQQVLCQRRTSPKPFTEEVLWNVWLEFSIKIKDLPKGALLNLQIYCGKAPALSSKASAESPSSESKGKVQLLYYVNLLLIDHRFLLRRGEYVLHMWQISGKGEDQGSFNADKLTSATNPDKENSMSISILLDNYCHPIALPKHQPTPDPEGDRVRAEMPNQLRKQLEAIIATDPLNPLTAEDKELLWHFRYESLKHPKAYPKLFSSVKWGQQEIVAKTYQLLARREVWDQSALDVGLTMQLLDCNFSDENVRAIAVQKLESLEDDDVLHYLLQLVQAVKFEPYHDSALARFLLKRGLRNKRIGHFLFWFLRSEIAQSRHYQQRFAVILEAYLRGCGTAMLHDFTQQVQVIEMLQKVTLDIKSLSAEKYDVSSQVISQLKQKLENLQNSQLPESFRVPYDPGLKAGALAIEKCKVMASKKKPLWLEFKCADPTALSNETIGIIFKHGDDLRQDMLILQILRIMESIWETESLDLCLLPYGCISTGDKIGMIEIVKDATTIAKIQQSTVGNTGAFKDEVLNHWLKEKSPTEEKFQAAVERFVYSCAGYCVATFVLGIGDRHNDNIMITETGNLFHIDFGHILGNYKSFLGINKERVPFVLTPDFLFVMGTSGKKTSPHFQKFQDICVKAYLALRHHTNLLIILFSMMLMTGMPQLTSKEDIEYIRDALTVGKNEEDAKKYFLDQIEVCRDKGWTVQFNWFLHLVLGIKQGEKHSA

[4] = target: T2, kinases (KINOMEscan panel) (Homo sapiens, UniProt P52333); conditions: kinase JAK3(JH1domain-catalytic); Published KINOMEscan; ref original PKIS2 published data; cited from earlier work
T2 sequence (P52333 1-1124): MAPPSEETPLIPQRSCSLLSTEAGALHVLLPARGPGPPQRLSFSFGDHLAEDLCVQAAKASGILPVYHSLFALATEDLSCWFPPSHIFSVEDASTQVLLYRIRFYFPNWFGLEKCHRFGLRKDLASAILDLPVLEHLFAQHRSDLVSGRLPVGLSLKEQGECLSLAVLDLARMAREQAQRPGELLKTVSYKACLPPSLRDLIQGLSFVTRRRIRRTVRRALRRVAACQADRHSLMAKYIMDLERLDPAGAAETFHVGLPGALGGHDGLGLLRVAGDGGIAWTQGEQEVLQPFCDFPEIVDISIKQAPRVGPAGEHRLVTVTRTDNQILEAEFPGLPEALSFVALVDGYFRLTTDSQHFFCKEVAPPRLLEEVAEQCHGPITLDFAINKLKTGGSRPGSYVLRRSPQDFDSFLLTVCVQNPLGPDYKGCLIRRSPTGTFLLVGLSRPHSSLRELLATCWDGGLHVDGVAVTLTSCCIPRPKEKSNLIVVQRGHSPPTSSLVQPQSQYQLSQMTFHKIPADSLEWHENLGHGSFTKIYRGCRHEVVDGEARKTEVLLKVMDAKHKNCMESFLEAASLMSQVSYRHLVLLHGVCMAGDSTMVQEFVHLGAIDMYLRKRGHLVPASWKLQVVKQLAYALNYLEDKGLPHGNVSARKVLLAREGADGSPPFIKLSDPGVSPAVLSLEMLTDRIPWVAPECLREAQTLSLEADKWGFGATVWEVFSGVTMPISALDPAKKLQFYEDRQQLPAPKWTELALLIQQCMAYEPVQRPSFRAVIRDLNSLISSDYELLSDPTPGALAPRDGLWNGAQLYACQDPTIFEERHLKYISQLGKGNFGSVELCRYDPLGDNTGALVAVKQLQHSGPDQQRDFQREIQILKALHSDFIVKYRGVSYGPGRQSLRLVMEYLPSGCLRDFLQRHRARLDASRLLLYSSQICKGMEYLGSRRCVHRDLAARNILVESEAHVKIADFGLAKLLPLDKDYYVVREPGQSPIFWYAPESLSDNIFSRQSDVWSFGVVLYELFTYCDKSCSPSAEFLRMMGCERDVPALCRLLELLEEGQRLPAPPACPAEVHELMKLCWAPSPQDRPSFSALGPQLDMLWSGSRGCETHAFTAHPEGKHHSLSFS

[5] = target: kinases (KINOMEscan panel) (Homo sapiens, UniProt P78368); conditions: kinase CSNK1G2; Published KINOMEscan; ref original PKIS2 published data; cited from earlier work
Chain of kinases (KINOMEscan panel) (Homo sapiens, UniProt P78368) (P78368 whole entry): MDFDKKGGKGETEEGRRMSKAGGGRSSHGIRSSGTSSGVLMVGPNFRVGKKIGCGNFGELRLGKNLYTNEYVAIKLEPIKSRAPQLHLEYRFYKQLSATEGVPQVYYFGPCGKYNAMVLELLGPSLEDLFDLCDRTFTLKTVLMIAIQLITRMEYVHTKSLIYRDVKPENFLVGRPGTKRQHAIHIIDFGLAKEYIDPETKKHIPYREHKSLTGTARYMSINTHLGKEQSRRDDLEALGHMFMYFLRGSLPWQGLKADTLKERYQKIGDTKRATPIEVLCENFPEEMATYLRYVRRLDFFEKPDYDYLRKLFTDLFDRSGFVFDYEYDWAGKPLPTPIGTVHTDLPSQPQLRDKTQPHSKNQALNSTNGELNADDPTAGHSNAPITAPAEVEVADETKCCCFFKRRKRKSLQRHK

Chain of kinases (KINOMEscan panel) (Homo sapiens, UniProt O60331) (O60331 whole entry): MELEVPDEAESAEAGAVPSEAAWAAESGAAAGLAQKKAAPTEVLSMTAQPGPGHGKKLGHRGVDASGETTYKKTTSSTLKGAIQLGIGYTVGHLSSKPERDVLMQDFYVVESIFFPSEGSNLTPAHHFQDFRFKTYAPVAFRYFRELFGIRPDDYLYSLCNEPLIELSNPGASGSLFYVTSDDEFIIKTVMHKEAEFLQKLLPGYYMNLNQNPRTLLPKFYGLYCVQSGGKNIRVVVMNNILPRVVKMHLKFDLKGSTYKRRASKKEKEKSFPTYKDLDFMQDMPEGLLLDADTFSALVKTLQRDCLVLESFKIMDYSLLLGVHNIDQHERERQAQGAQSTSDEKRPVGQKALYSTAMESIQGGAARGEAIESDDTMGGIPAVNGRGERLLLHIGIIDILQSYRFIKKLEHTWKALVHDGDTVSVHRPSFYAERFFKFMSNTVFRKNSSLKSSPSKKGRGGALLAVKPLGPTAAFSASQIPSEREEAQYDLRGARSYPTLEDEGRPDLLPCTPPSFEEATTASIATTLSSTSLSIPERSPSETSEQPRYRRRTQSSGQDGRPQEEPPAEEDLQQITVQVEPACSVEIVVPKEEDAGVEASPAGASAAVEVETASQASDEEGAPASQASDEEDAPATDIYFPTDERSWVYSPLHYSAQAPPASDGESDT

Cc1cccc(-c2nc(Nc3ccncc3)c3ccccc3n2)n1 [NK215]
KINOMEscan PIP5K1C [1]: 40 | KINOMEscan LATS1 [2]: 3 | KINOMEscan PIK3CG [3]: 0 | KINOMEscan JAK3(JH1domain-catalytic) [4]: 0 | KINOMEscan CSNK1G2 [5]: 20
